≈ marks a conversion by molar mass, not a printed value. Calls of active or inactive are those of the source.

Assay [1] concerns Radical scavenging activity. In words: Antioxidant activity assessed as DPPH radical scavenging activity at 1 mg/mL after 15 min UV-vis spectrophotometric analysis relative to control. In kind it is functional. (DPPH is a stable violet radical that fades when it is reduced.)
In assay [2] the test system is Bacillus subtilis. Nature of the assay: Antibacterial activity against Bacillus subtilis NCTC 10400 assessed as growth inhibition after 24 hr. As to conditions: NCTC 10400, 24 h. The assay is classed as functional.
Assay [3] deals with Staphylococcus aureus. In words: Antibacterial activity against Staphylococcus aureus NCTC 10788 assessed as growth inhibition at 50 mg/mL after 24 hr. In kind it is functional. The following applies: for zone of inhibition at 50000 µg/mL: NCTC 10788, 24 h, read-out: IZ.
Assay [4] deals with Escherichia coli. Nature of the assay: Antibacterial activity against Escherichia coli NCTC 12923 assessed as growth inhibition at 50 mg/mL after 24 hr. In kind it is functional. As to conditions: for zone of inhibition at 50000 µg/mL: NCTC 12923, 24 h, read-out: IZ.
The subject of assay [5] is Escherichia coli. In words: Antibacterial activity against Escherichia coli NCTC 12923 assessed as growth inhibition at 1 to 50 mg/mL after 24 hr. The assay is classed as functional, organism-based.
For assay [6], the system named is Bacillus subtilis. In words: Antibacterial activity against Bacillus subtilis NCTC 10400 assessed as growth inhibition at 1 to 50 mg/mL after 24 hr. The assay is classed as functional, organism-based.
For assay [7], the system named is Staphylococcus aureus. Nature of the assay: Antibacterial activity against Staphylococcus aureus NCTC 10788 assessed as growth inhibition at 1 to 50 mg/mL after 24 hr. The assay is classed as functional, organism-based.
In assay [8] the test system is Candida albicans. Nature of the assay: Antifungal activity against Candida albicans NCPF 3179 assessed as growth inhibition at 1 to 50 mg/mL after 3 days. In kind it is functional, organism-based.
Assay [9] concerns Bacillus subtilis. Nature of the assay: Antibacterial activity against Bacillus subtilis NCTC 10400 assessed as growth inhibition at 50 mg/mL after 24 hr. As to conditions: for zone of inhibition at 50000 µg/mL: NCTC 10400, 24 h, read-out: IZ. The assay is classed as functional.
In assay [10] the test system is Candida albicans. In words: Antifungal activity against Candida albicans NCPF 3179 assessed as growth inhibition at 50 mg/mL after 3 days. In kind it is functional. The following applies: NCPF 3179, 72 h, read-out: IZ.
Assay [11] concerns Staphylococcus aureus. In words: Antibacterial activity against Staphylococcus aureus NCTC 10788 assessed as growth inhibition after 24 hr. In kind it is functional. The following applies: NCTC 10788, 24 h.

In general, MIC refers to the smallest concentration in the dilution series that meets the test's criterion for growth inhibition. As for `OC(c1ccc(-c2ccccc2F)cc1)c1cc2cc(-c3ccccc3F)ccc2o1` (stereo not given), in assay [1], the Activity was found to be 21.3%. Also, the MIC in the assay with Bacillus subtilis [2] turned out to be 50 µg/mL (≈ 121 µM). Further, the zone of inhibition at 50000 µg/mL was 0 mm in the assay with Staphylococcus aureus [3], 0 mm in the assay on Escherichia coli [4], 6 mm in the assay with Bacillus subtilis [9] and 0 mm with Candida albicans [10]. Moreover, the “growth inhibition (GI)” value in the assay with Escherichia coli [5], in the assay with Bacillus subtilis [6], in the assay with Staphylococcus aureus [7] and in the assay with Candida albicans [8] was “inactive” each time.
With `CCOc1ccccc1-c1ccc(C(O)(Cc2ccccc2)c2cc3cc(-c4ccccc4OCC)ccc3o2)cc1` (stereo not given), in assay [1], the Activity came to 16.4%. In addition, the “growth inhibition (GI)” value with Escherichia coli [5], with Bacillus subtilis [6], in the assay on Staphylococcus aureus [7] and in the assay on Candida albicans [8] was “inactive” in each case.
For NYSTATIN, the inhibition zone (IZ) with Staphylococcus aureus [3], in the assay with Escherichia coli [4] and with Bacillus subtilis [9] was 0 mm each time.
`OC(Cc1ccccc1)(c1ccc(-c2ccccc2)cc1)c1cc2cc(-c3ccccc3)ccc2o1` (stereo not given): the Activity in assay [1] amounted to 30.5%. For the same compound, the “growth inhibition (GI)” value with Escherichia coli [5], in the assay with Bacillus subtilis [6], in the assay with Staphylococcus aureus [7] and in the assay with Candida albicans [8] was “inactive” each time.
`CCOc1ccccc1-c1ccc(C(O)(c2cc3cc(-c4ccccc4OCC)ccc3o2)C(C)C)cc1` (stereo not given): the Activity in assay [1] worked out at 11.4%. Also, the “growth inhibition (GI)” value in the assay on Escherichia coli [5], in the assay on Bacillus subtilis [6], in the assay on Staphylococcus aureus [7] and in the assay with Candida albicans [8] was “inactive” in each case.
`CS(=O)(=O)c1cccc(-c2ccc(C(O)c3cc4cc(-c5cccc(S(C)(=O)=O)c5)ccc4o3)cc2)c1` (stereo not given): the Activity in [1] amounted to 39.8%. Besides, the “growth inhibition (GI)” value in the assay with Escherichia coli [5] was “inactive”.
In the case of `CCOc1ccccc1-c1ccc(C(O)c2cc3cc(-c4ccccc4OCC)ccc3o2)cc1` (stereo not given), in assay [1], the Activity stood at 19.3%. Also, the “growth inhibition (GI)” value in the assay on Escherichia coli [5], with Bacillus subtilis [6], in the assay with Staphylococcus aureus [7] and in the assay with Candida albicans [8] was “inactive” each time.
Take `CCC(O)(c1ccc(-c2ccccc2)cc1)c1cc2cc(-c3ccccc3)ccc2o1` (stereo not given): the Activity in assay [1] turned out to be 12.9%. Further, the “growth inhibition (GI)” value in the assay on Escherichia coli [5], in the assay on Bacillus subtilis [6], with Staphylococcus aureus [7] and in the assay with Candida albicans [8] was “inactive” throughout.
As to `CC(=O)c1ccccc1-c1ccc(C(=O)c2cc3cc(-c4ccccc4C(C)=O)ccc3o2)cc1`, the Activity in [1] is 19%. Besides, the MIC in the assay on Bacillus subtilis [2] and with Staphylococcus aureus [11] was 100 µg/mL (≈ 218 µM) each time. Moreover, the zone of inhibition at 50000 µg/mL with Staphylococcus aureus [3] was 8 mm; in the assay with Escherichia coli [4], 0 mm; in the assay on Bacillus subtilis [9], 10 mm; with Candida albicans [10], 0 mm. Moreover, in the assay on Escherichia coli [5], the “growth inhibition (GI)” value was “inactive”.
Regarding `N#Cc1ccc(Cl)c(-c2ccc(C(=O)c3cc4cc(-c5cc(C#N)ccc5Cl)ccc4o3)cc2)c1`, the Activity in assay [1] amounted to 15.8%. Further, the “growth inhibition (GI)” value in the assay on Escherichia coli [5], in the assay on Bacillus subtilis [6], with Staphylococcus aureus [7] and in the assay on Candida albicans [8] was “inactive” throughout.
For `CC(C)C(O)(c1ccc(-c2ccccc2)cc1)c1cc2cc(-c3ccccc3)ccc2o1` (stereo not given), in assay [1], the Activity was determined as 52.3%. Further, the “growth inhibition (GI)” value in the assay with Escherichia coli [5], in the assay with Bacillus subtilis [6], with Staphylococcus aureus [7] and with Candida albicans [8] was “inactive” each time.
For the compound `CCc1ccc(-c2ccc(C(O)(Cc3ccccc3)c3cc4cc(-c5ccc(CC)cc5)ccc4o3)cc2)cc1` (stereo not given), the Activity in assay [1] is 60.3%. The “growth inhibition (GI)” value in the assay on Escherichia coli [5], in the assay with Bacillus subtilis [6], with Staphylococcus aureus [7] and in the assay with Candida albicans [8] was “inactive” each time.
Take `OC(c1ccc(-c2ccccc2)cc1)c1cc2cc(-c3ccccc3)ccc2o1` (stereo not given): the Activity in [1] was 79.5%. The “growth inhibition (GI)” value in the assay with Escherichia coli [5], in the assay with Bacillus subtilis [6], with Staphylococcus aureus [7] and in the assay on Candida albicans [8] was “inactive” throughout.
With `O=C(c1ccc(-c2ccccc2F)cc1)c1cc2cc(-c3ccccc3F)ccc2o1`, in [1], the Activity turned out to be 18.7%. Also, the “growth inhibition (GI)” value with Escherichia coli [5], in the assay on Bacillus subtilis [6], in the assay on Staphylococcus aureus [7] and in the assay with Candida albicans [8] was “inactive” throughout.
Take `CC(C)(C)C(O)(c1ccc(-c2ccccc2)cc1)c1cc2cc(-c3ccccc3)ccc2o1` (stereo not given): in assay [1], the Activity turned out to be 18.8%. For the same compound, the “growth inhibition (GI)” value in the assay with Escherichia coli [5], with Bacillus subtilis [6], with Staphylococcus aureus [7] and in the assay on Candida albicans [8] was “inactive” in each case.
Regarding `CCOc1ccccc1-c1ccc(C(O)(CC)c2cc3cc(-c4ccccc4OCC)ccc3o2)cc1` (stereo not given), in [1], the Activity worked out at 5.5%. The “growth inhibition (GI)” value with Escherichia coli [5], in the assay with Bacillus subtilis [6], with Staphylococcus aureus [7] and with Candida albicans [8] was “inactive” in each case.
Take `O=C(c1ccc(-c2cccc([N+](=O)[O-])c2)cc1)c1cc2cc(-c3cccc([N+](=O)[O-])c3)ccc2o1`: the Activity in [1] worked out at 19.5%. The minimum inhibitory concentration (MIC) in the assay on Bacillus subtilis [2] was 50 µg/mL (≈ 108 µM). For the same compound, the zone of inhibition at 50000 µg/mL in the assay on Staphylococcus aureus [3] was found to be 0 mm; in the assay with Escherichia coli [4] it was 0 mm; with Bacillus subtilis [9], 7 mm; in the assay with Candida albicans [10], 0 mm. For the same compound, the “growth inhibition (GI)” value with Escherichia coli [5] was “inactive”.
`CCc1ccc(-c2ccc(C(O)c3cc4cc(-c5ccc(CC)cc5)ccc4o3)cc2)cc1` (stereo not given): the Activity in assay [1] was found to be 55.7%. The “growth inhibition (GI)” value with Escherichia coli [5], in the assay with Bacillus subtilis [6], with Staphylococcus aureus [7] and with Candida albicans [8] was “inactive” each time.
Take `O=[N+]([O-])c1cccc(-c2ccc(C(O)c3cc4cc(-c5cccc([N+](=O)[O-])c5)ccc4o3)cc2)c1` (stereo not given): in assay [1], the Activity was 19.9%. Besides, the MIC in the assay on Bacillus subtilis [2] and with Staphylococcus aureus [11] was 500 µg/mL (≈ 1070 µM) each time. In addition, the zone of inhibition at 50000 µg/mL in the assay with Staphylococcus aureus [3] turned out to be 6 mm; with Escherichia coli [4], 0 mm; with Bacillus subtilis [9] it was 6 mm; in the assay on Candida albicans [10] it was 0 mm. Moreover, the “growth inhibition (GI)” value with Escherichia coli [5] is “inactive”.
For `CC1(C)S[C@@H]2[C@H](NC(=O)[C@H](N)c3ccccc3)C(=O)N2[C@H]1C(=O)O` [AMPICILLIN], the zone of inhibition at 50000 µg/mL with Staphylococcus aureus [3] was 16 mm; in the assay with Escherichia coli [4] it was 20 mm; with Bacillus subtilis [9], 15 mm; in the assay with Candida albicans [10] it was 0 mm.
Regarding `Cc1cc(C(C)(C)C)c(O)c(C(C)(C)C)c1`, the Activity in assay [1] turned out to be 90.4%.
Turning to `CCOc1ccccc1-c1ccc(C(O)(c2cc3cc(-c4ccccc4OCC)ccc3o2)C(C)(C)C)cc1` (stereo not given), the Activity in [1] was 21.2%. Further, the “growth inhibition (GI)” value in the assay with Escherichia coli [5], with Bacillus subtilis [6], in the assay with Staphylococcus aureus [7] and in the assay on Candida albicans [8] was “inactive” throughout.
In the case of `CCc1ccc(-c2ccc(C(O)(c3cc4cc(-c5ccc(CC)cc5)ccc4o3)C(C)C)cc2)cc1` (stereo not given), the Activity in assay [1] was 34.7%. Also, the “growth inhibition (GI)” value in the assay with Escherichia coli [5], in the assay on Bacillus subtilis [6], in the assay on Staphylococcus aureus [7] and in the assay on Candida albicans [8] was “inactive” throughout.
On to `CCc1ccc(-c2ccc(C(O)(CC)c3cc4cc(-c5ccc(CC)cc5)ccc4o3)cc2)cc1` (stereo not given), for which the Activity in assay [1] stood at 55.2%. Moreover, the “growth inhibition (GI)” value with Escherichia coli [5], in the assay with Bacillus subtilis [6], in the assay on Staphylococcus aureus [7] and in the assay with Candida albicans [8] was “inactive” in each case.
`CCOc1ccccc1-c1ccc(C(=O)c2cc3cc(-c4ccccc4OCC)ccc3o2)cc1`: the Activity in [1] came to 16.1%. Also, the “growth inhibition (GI)” value in the assay on Escherichia coli [5], in the assay on Bacillus subtilis [6], in the assay on Staphylococcus aureus [7] and with Candida albicans [8] was “inactive” in each case.
Consider `CCc1ccc(-c2ccc(C(O)(c3cc4cc(-c5ccc(CC)cc5)ccc4o3)C(C)(C)C)cc2)cc1` (stereo not given), for which the Activity in [1] was 24.2%. Also, the “growth inhibition (GI)” value with Escherichia coli [5], in the assay on Bacillus subtilis [6], in the assay on Staphylococcus aureus [7] and with Candida albicans [8] was “inactive” in each case.
Regarding `CCc1ccc(-c2ccc(C(=O)c3cc4cc(-c5ccc(CC)cc5)ccc4o3)cc2)cc1`, in [1], the Activity turned out to be 17.3%. The “growth inhibition (GI)” value with Escherichia coli [5] was “inactive”.

(Values after ChEMBL document CHEMBL3045324, “5-phenyl-1-benzofuran-2-yl derivatives: synthesis, antimicrobial, and antioxidant activity” (2013).)
